The record followed here is patent US20210084902A1, “FUNGICIDAL MIXTURE COMPRISING SUBSTITUTED 3-PHENYL-5-(TRIFLUOROMETHYL)-1,2,4-OXADIAZOLES” (BASF SE, priority 2017, published 2021).

Like-named read-outs stand apart in the source and are kept apart here.

Holding throughout (assay type): cell-based
For one assay, the system named is Botrytis cinerea. Put plainly: Fungicidal activity against Botrytis cinerea, micro titer plate (MTP) test. As to conditions: Botrytis cinerea, 168 h, read-out: Observed efficacy.
In assay [1] the test system is Colletotrichum orbiculare. As to the kind of experiment: Fungicidal activity against Colletotrichum orbiculare in the microtiterplate test. As to conditions: Colletotrichum orbiculare, read-out: Observed efficacy.
A further assay relates to Leptosphaeria nodorum. As to the kind of experiment: Fungicidal activity against Leptosphaeria nodorum, microtiter plate (MTP) test. To be noted: Parastagonospora nodorum, 168 h, read-out: Observed efficacy.
The subject of the next assay is Pyricularia oryzae. Put plainly: microbe, parasite or virus in culture. To be noted: Pyricularia oryzae, 168 h, read-out: Observed efficacy.
A further assay deals with Septoria tritici. Put plainly: Fungicidal activity against Septoria tritici, micro titer plate (MTP) test. To be noted: Zymoseptoria tritici, 168 h, read-out: Observed efficacy.

With `O=C(Nc1ccccc1F)c1ccc(-c2noc(C(F)(F)F)n2)cc1` [I.E, N-(2-fluorophenyl)-4-[5-(trifluoromethyl)-1,2,4-oxadiazol-3-yl]benzamide], the inhibition of growth at […] in the assay on Botrytis cinerea (I.E alone, 0.063 ppm) turned out to be 2%; in assay [1] (0.25 ppm), 4%; in the assay on Septoria tritici (Table V.6, I.E alone, 0.25 ppm), 13%. Besides, the results for the inhibition of growth at 1 ppm (with Botrytis cinerea (I.E alone); in assay [1] (1 ppm); in the assay with Pyricularia oryzae) were 2%, 4% and 5%, respectively. Also, the inhibition of growth at 4 ppm in the assay with Botrytis cinerea (I.E alone) is 2%; in assay [1] (4 ppm) it was 11%; in the assay with Pyricularia oryzae it was 5%; with Septoria tritici (Table V.6, I.E alone), 7%. Further, the inhibition of growth at 16 ppm was determined as 3% with Botrytis cinerea (I.E alone, 16 ppm); 52% in assay [1] (16 ppm); 18% in the assay with Leptosphaeria nodorum (16 ppm); 6% in the assay with Pyricularia oryzae; 13% with Septoria tritici (Table V.6, I.E alone, 16 ppm). Also, the inhibition of growth at 63 ppm is 16% with Botrytis cinerea (I.E alone, 63 ppm); 22% in the assay with Leptosphaeria nodorum (63 ppm); 9% in the assay with Pyricularia oryzae; 14% in the assay on Septoria tritici (Table V.6, I.E alone, 63 ppm).
Regarding `CNC(=S)c1ccc(-c2noc(C(F)(F)F)n2)cc1` [I.M, N-methyl-4-[5-(trifluoromethyl)-1,2,4-oxadiazol-3-yl]benzenecarbothioamide], the inhibition of growth at […] in the assay with Botrytis cinerea (I.M alone, 0.063 ppm) came out at 1%; in the assay on Botrytis cinerea (I.M alone, 0.25 ppm), 2%; in assay [1] (0.00025 ppm) it was 2%; in assay [1] (0.016 ppm) it was 7%; with Leptosphaeria nodorum (0.016 ppm), 5%; with Leptosphaeria nodorum (0.25 ppm), 7%. The inhibition of growth at […] amounted to 14% in the assay with Septoria tritici (Table V.5, I.M alone, 0.063 ppm) and 23% in the assay on Septoria tritici (Table V.5, I.M alone, 0.25 ppm). For the same molecule, the inhibition of growth at 1 ppm in the assay on Botrytis cinerea (I.M alone) is 0%; with Leptosphaeria nodorum (1 ppm), 18%; in the assay with Pyricularia oryzae, 9%; in the assay on Septoria tritici (Table V.5, I.M alone, 1 ppm), 35%. The inhibition of growth at 4 ppm was 15% in the assay with Botrytis cinerea (I.M alone); 52% with Leptosphaeria nodorum (4 ppm); 32% in the assay on Pyricularia oryzae; 42% with Septoria tritici (Table V.5, I.M alone). The inhibition of growth at 6.3e-05 ppm in assay [1] (0.000063 ppm) turned out to be 2%. Also, the inhibition of growth at 0.001 ppm in assay [1] is 1%. Besides, the inhibition of growth at 0.004 ppm is 1% in assay [1] (0.004 ppm) and 6% with Leptosphaeria nodorum.
For `COC(=O)N(OC)c1ccccc1COc1ccn(-c2ccc(Cl)cc2)n1` [Pyraclostrobin, pyraclostrobin], the inhibition of growth at 0.004 ppm in the assay on Botrytis cinerea (component B alone, 0.004 ppm) was 0%; with Leptosphaeria nodorum, 59%. The inhibition of growth at […] with Botrytis cinerea (component B alone, 0.016 ppm) was 14%; in assay [1] (0.016 ppm), 60%; in the assay with Leptosphaeria nodorum (0.00025 ppm), 22%. For the same molecule, the values for the inhibition of growth at 0.001 ppm (in assay [1]; with Pyricularia oryzae) were 32% and 46%, respectively. For the same molecule, in the assay on Septoria tritici (Table V.4, component B alone, 0.000063 ppm), the inhibition of growth at 6.3e-05 ppm was 21%.
